Activity calls are given as the source filed them.
Columns and labels:
[1] = TB:CFU starved Measured in Microorganism System Using Imaging - 7108-06_Inhibitor_Dose_DryPowder_Activity_Set2.; format: functional
[2] = molecular target: Glutathione-S-transferase (Schistosoma japonicum, UniProt Q26513); test: GST-antibody interaction or FRET quenching – biochemical, TR-FRET, artefact control for Vif-APOBEC3G degradation inhibitor project, dose response (AID 1117362); format: functional
Vero = test: viability of Vero cells under compound – cytotoxicity control for flavivirus capping enzyme inhibitors (AID 588742); format: functional; conditions: Chlorocebus sabaeus
[3] = viability loss in THP-1 monocytes – THP-1 cells, cytotoxicity control for Vif-APOBEC3G degradation inhibitor project, dose response (AID 1117359); format: functional; conditions: THP-1
[4] = viability inhibitors of stage V gametocytes – luminescence, dose response (AID 1117278); format: functional, cell-based;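 also: gametocytes exposed to compound for 24 hours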
Cytochrome P450 2C19 = Cytochrome P450 2C19 (Homo sapiens, UniProt P33261); test: Cytochrome panel assay with activity outcomes. Panel member name: p450-cyp2c19 Compounds with AC50 equal or less than 10 uM are considered active; format: functional
[5] = viability loss in human Jurkat cells – cell-based, luminescence, cytotoxicity control for P. falciparum gametocyte viability project, dose response (AID 1117277); format: functional;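 also: potency reflects loss of cellular ATP meaning fewer viable cells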
Cytochrome P450 1A2 = molecular target: T1, Cytochrome P450 1A2 (Homo sapiens, UniProt P05177);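 also: PubChem cytochrome P450 panel assay, CYP1A2 panel member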
T1 sequence (P05177 whole entry): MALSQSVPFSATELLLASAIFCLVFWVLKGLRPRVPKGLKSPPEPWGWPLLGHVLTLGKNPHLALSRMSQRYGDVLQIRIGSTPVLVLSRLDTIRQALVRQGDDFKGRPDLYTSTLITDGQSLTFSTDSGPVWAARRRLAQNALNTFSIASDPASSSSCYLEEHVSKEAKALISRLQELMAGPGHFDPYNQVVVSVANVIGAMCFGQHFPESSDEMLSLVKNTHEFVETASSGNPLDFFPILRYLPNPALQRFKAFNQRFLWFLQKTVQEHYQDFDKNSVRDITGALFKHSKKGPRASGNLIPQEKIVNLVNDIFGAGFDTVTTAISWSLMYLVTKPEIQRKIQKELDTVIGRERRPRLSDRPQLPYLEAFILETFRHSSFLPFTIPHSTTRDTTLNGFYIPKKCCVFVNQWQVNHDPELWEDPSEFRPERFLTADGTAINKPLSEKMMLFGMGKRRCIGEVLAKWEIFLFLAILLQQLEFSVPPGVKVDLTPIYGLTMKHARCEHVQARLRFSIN

[6] = IC50 of insulin release inhibition, rat insulinoma INS-1E line, 5 mM glucose, cell-based (AID 1117331); format: functional
[7] = HCT116 cell viability decrease, GSK3B pretreatment – CellTiter-Glo, IC50, dose response (AID 1117339); format: functional; conditions: HCT-116
[8] = rise of 2N DNA cells, HeLa – IC50, dose response (AID 1117349); format: functional, cell-based
[9] = rise of 4N DNA cells, HeLa – IC50, dose response (AID 1117351); format: functional, cell-based
[10] = CellTiter-Glo luminescence survival assay, SW480 colon tumor line, concentration-response curve, half-maximal inhibitory concentration (AID 1117338); format: functional
Phospholipase A2 = Phospholipase A2 (Homo sapiens, UniProt P04054); format: functional;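 also: confirmatory dose-response counterscreen on phospholipase A2, testing hits that came from an ultra-high-throughput screen for ATG4B inhibitors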
[11] = molecular target: T2, Rac GTPase-activating protein 1 (Homo sapiens, UniProt Q9H0H5); test: blockers of MgcRacGAP-driven Rac1 GTP hydrolysis – biochemical, ADP Hunter fluorescence, primary and confirmatory, confirmation (AID 624330); format: functional
T2 sequence (Q9H0H5 whole entry): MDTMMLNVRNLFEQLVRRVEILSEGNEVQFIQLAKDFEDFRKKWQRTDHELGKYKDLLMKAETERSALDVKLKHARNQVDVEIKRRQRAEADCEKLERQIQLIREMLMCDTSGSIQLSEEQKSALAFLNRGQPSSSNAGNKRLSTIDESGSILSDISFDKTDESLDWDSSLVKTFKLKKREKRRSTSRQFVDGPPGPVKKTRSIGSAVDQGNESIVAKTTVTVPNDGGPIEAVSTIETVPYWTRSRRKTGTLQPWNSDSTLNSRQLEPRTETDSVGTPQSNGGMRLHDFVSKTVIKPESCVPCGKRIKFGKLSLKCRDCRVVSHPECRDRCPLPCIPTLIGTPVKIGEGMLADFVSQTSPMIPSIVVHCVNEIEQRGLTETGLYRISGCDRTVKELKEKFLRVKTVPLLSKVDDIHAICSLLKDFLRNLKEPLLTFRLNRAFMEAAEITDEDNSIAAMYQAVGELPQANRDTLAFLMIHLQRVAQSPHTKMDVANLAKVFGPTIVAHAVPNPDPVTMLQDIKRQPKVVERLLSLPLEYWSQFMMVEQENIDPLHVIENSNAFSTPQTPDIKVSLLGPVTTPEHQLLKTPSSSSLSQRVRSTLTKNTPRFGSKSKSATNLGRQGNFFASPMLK

[12] = Reduced DLD-1 viability, concentration-response, CellTiter-Glo luminescence (AID 1117352); format: functional
[13] = cytotoxicity toward HCT116 cells – cell-based, CellTiter-Glo luminescence, IC50, dose response (AID 1117332); format: functional; conditions: HCT-116
[14] = molecular target: Heat shock protein HSP 90-alpha (Homo sapiens, UniProt P07900); format: functional, organism-based
[15] = cytotoxicity toward HT-29 cells – cell-based, CellTiter-Glo luminescence, IC50, dose response (AID 1117330); format: functional
[16] = viability loss in HeLa cells – cytotoxicity control for MgcRacGAP inhibitor project, dose response (AID 624300); format: functional
cells = format: functional, cell-based; conditions: INS-1E
[17] = Potency on glucagon-like peptide 1 release, dose-response in NCI-H716 cell line, half maximal inhibitory concentration (AID 1117344); format: functional, cell-based
Cysteine protease ATG4B = molecular target: T3, Cysteine protease ATG4B (Homo sapiens, UniProt Q9Y4P1); format: functional;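 also: Fluorescence-based dose-response confirmation assay measuring inhibition of ATG4B activity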
T3 sequence (Q9Y4P1 whole entry): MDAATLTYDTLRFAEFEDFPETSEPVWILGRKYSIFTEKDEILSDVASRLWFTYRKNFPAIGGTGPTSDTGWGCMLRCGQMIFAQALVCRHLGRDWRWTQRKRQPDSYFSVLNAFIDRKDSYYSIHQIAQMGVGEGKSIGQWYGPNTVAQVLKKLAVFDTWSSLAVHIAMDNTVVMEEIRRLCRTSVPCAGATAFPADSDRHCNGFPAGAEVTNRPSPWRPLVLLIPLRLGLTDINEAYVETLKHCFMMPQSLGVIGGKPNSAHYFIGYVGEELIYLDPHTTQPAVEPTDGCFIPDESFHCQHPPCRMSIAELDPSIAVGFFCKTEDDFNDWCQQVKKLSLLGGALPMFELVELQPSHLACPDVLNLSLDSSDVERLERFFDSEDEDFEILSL

[18] = glucagon-like peptide-1 release potency in STC-1, concentration-response, half-maximal inhibitory concentration in the STC-1 line (AID 1117345); format: functional, cell-based
[19] = RKO cell viability reduction, dose response, CellTiter-Glo luminescence (AID 1117322); format: functional
[20] = cytotoxicity toward Colo320 cells – cell-based, CellTiter-Glo luminescence, IC50, dose response (AID 1117334); format: functional; conditions: COLO 320
[21] = SNU-C1 cell viability reduction, dose response, CellTiter-Glo luminescence (AID 1117323); format: functional, cell-based
[22] = molecular target: T4, DNA repair protein RAD52 homolog (Homo sapiens, UniProt P43351); format: functional, biochemical
T4 sequence (P43351 whole entry): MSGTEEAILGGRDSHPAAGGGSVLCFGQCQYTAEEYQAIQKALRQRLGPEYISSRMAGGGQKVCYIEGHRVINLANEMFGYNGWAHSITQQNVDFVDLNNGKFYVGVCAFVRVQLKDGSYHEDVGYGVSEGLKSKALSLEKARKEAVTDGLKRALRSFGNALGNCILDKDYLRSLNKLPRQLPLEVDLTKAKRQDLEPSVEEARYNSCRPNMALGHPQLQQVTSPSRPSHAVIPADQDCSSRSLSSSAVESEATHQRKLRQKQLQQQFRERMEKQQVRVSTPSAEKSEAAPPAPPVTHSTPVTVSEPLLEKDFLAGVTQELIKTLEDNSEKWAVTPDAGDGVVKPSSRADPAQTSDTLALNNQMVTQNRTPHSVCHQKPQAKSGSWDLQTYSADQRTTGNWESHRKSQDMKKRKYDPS

[23] = molecular target: T5, Endoplasmic reticulum aminopeptidase 1 (Homo sapiens, UniProt Q9NZ08); test: inhibition of human ERAP1 enzyme activity – biochemical, cherry-pick, set 2, plate reader, dose response (AID 743314)
[24] = molecular target: T5, Endoplasmic reticulum aminopeptidase 1; test: blocking ERAP1 cleavage of leucine-AMC substrate – biochemical, fluorescence plate reader, dry powder, dose response (AID 1117292); format: functional
[25] = lung carcinoma cell viability loss – CellTiter-Glo luminescence, dry powder, set 18, cytotoxicity control, dose response (AID 1117290); format: functional, cell-based; conditions: A549
[26] = hepatoma cell viability loss – CellTiter-Glo luminescence, dry powder, set 20, cytotoxicity control, dose response (AID 1117291); format: functional, cell-based; conditions: HepG2
[27] = OVCAR-3 cell viability loss – plate reader, dry powder samples, PAX8 inhibitor project, dose response (AID 743044); format: functional, cell-based
[28] = toxicity toward immortalized ovarian surface epithelium – cell-based, plate reader, dry powder samples, cytotoxicity control for PAX8 inhibitor project, dose response (AID 743045); format: functional
[29] = OVCAR8 cell viability loss – plate reader, dry powder samples, PAX8 project, dose response (AID 743197); format: functional, cell-based; conditions: OVCAR-8
[30] = IGROV1 cell killing – plate reader, dry powder samples, PAX8 inhibitor project, dose response (AID 743043); format: functional, cell-based; conditions: IGROV-1
[31] = lung carcinoma cell viability loss – CellTiter-Glo luminescence, dry powder, set 17, dose response (AID 1117284); format: functional, cell-based; conditions: A549
[32] = viability loss in A549 lung cells – cell-based, 24 h, CellTiter-Glo luminescence, cherry-picks, cytotoxicity control, dose response (AID 1053115); format: functional; conditions: A549, 24 h
[33] = general mammalian cell viability loss – activator set, cherry-pick, cytotoxicity control for miR-122 modulator project, dose response (AID 720690); format: functional, cell-based;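 also: HEK293T human cells scored for general mammalian cytotoxicity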
[34] = general mammalian cell viability loss – inhibitor set, cherry-pick, set 2, cytotoxicity control for miR-122 modulator project, dose response (AID 720697); format: functional, cell-based
Paired box protein Pax-8 = Paired box protein Pax-8 (Homo sapiens, UniProt Q06710); test: PAX8 transcriptional activity inhibition in RMG-I – RMG-I cells, luciferase, cherry-pick, dose response (AID 687027); format: functional, cell-based;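 also: luciferase reporter driven by Pax8 target thyroperoxidase promoter measured by SteadyGlo luminescence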
Paired box protein Pax-8, sequence (Q06710 whole entry): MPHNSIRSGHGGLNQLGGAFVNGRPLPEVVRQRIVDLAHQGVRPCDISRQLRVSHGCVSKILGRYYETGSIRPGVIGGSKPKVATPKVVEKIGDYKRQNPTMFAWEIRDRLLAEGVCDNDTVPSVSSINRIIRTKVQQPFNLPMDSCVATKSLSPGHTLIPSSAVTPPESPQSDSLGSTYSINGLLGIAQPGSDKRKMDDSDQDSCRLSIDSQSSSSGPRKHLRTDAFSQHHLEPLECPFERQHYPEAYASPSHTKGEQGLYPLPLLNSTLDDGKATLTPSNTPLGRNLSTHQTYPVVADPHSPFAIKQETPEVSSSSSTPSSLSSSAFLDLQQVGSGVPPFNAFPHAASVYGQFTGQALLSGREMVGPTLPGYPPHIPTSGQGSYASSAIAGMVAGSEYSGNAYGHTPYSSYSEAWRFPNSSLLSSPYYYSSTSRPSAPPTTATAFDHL

T5 sequence (Q9NZ08 whole entry): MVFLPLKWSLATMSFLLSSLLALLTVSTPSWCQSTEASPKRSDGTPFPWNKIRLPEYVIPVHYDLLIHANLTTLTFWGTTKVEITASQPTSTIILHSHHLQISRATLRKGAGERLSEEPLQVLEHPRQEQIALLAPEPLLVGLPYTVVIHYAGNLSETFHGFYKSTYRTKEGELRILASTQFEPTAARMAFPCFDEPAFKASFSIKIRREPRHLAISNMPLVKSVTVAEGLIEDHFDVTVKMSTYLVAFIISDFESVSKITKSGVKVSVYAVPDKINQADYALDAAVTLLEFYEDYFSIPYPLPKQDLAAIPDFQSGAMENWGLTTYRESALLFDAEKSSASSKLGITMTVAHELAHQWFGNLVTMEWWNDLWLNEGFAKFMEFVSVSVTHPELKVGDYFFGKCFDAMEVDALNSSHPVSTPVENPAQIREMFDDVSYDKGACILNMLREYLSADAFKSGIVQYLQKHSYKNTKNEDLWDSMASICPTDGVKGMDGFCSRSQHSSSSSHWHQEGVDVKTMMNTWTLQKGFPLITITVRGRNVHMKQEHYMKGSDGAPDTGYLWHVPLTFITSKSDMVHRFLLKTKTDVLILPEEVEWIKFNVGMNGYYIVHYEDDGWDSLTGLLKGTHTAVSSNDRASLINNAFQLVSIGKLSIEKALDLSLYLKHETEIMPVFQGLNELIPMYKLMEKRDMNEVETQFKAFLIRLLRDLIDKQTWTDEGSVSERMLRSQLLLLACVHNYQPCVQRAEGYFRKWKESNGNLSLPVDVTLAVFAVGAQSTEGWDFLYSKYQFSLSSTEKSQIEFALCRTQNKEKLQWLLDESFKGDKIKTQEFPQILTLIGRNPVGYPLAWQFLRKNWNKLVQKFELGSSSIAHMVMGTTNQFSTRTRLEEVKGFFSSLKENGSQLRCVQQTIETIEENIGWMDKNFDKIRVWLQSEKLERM
Glutathione-S-transferase, sequence (Q26513 whole entry): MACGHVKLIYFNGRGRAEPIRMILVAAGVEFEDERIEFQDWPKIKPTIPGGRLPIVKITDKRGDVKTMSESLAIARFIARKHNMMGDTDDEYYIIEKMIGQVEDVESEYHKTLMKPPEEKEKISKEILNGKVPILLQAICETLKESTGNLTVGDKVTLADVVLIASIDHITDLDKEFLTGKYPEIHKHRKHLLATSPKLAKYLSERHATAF
Cytochrome P450 2C19, sequence (P33261 whole entry): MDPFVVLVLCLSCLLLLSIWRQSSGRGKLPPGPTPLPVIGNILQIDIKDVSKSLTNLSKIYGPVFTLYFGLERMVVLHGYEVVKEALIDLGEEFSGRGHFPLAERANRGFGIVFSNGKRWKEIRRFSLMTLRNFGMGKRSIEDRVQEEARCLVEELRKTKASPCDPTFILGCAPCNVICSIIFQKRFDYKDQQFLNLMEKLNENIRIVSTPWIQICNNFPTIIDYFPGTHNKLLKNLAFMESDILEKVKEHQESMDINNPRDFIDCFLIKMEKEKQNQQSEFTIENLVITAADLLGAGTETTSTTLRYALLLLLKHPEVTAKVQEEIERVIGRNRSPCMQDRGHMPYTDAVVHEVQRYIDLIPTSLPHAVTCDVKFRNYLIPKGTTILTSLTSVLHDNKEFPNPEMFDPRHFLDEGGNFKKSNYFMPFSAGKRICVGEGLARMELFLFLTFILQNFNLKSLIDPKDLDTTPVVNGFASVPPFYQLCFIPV
Phospholipase A2, sequence (P04054 whole entry): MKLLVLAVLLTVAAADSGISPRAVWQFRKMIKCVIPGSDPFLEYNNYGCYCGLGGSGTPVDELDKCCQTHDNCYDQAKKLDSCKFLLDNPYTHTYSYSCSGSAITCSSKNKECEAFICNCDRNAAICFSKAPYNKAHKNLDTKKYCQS

CCn1c(NC(=O)c2cccnc2O)nc2ccccc21
89.33 µM: AbsAC90 [1]

CC[n+]1c(/C=C2/C=C(C)CC(C)(C)C2)sc2ccc(OC)cc21
active: IC50 [2] > 100 µM | CC50 (Vero) > 40 µM | CC50 [3] 4.13 µM

CCCCC1(C)NC(=O)c2c(C)sc(C(=O)OCC)c2N1 (stereo unspecified)
inconclusive: AC50 (Cytochrome P450 2C19) 2.24 µM | AC50 (Cytochrome P450 1A2) 14.1 µM
inactive: IC50 [4] > 109 µM | IC50 [5] > 83.3 µM

Cc1cc(-n2nc3ccc(Cl)cc3n2)c(O)c(C(C)(C)C)c1 [BUMETRIZOLE]
inactive: IC50 [6] > 33.3 µM

CCCCCCCCCCCCCCCC[n+]1ccccc1
active: IC50 [7] 2.29 µM | IC50 [8] 1.25 µM | IC50 [10] 1.61 µM | IC50 (Phospholipase A2) 8.34 µM | IC50 [11] 61.1 µM | IC50 [12] 1.93 µM | IC50 [13] 1.19 µM | AC50 [14] 4.22 µM | IC50 [15] 2.29 µM | CC50 [16] 11.8 µM | IC50 (Cysteine protease ATG4B) 7.14 µM | IC50 [19] 1.27 µM | IC50 [20] 1.64 µM | IC50 [21] 934 nM | AC50 [22] 3.79 µM
inactive: IC50 [9] > 10 µM | IC50 (cells) > 33.3 µM | IC50 [17] 14.8 µM | IC50 [18] > 20 µM

CC(=O)N1CCN(C(=O)C2(NC(=O)Nc3ccc(C)cc3)CCCCC2)CC1
active: AC50 [23] 8.21 µM | AC50 [24] 24.8 µM

COc1ccc(S(=O)(=O)Nc2cc(C(F)(F)F)ccc2N2CCCCC2)cc1
active: AC50 [25] 46 µM | AC50 [26] 33.8 µM

C[C@H](O)C#Cc1ccc2c(c1)O[C@H](CN(C)Cc1ccc(-c3ccccc3)cc1)[C@@H](C)CN([C@@H](C)CO)S2(=O)=O
active: AC50 [27] 10.7 µM | AC50 [28] 3.37 µM | AC50 [29] 43.2 µM | AC50 [30] 15.9 µM | AC50 [31] 37.9 µM | AC50 [33] 15.2 µM | AC50 [34] 1.58 µM | AC50 (Paired box protein Pax-8) 3.42 µM
inactive: AC50 [32] > 60 µM
